Values quoted from earlier work as cited in patent US20240158423A1, “TWO-COMPARTMENT BIPOLAR MEMBRANE ELECTRODIALYSIS OF SALTS OF AMINO ACIDS” (MONSANTO TECHNOLOGY LLC, priority 2021, published 2024).
Read-outs that look alike come from different tables or passages of the source.

Q: Which solubility (in water at a temperature of 10° C.) does the source give for `O=C(O)CNCC(=O)O` [IDA, iminodiacetic acid] here?
A: less than 4 g IDA/100 g H2O

Q: And the solubility (in water at a temperature of 60° C.)?
A: approximately 14 g IDA/100 g H2O
